Source: ChEMBL document CHEMBL5036306 (J Med Chem, 2021)
The source made the active and inactive calls. No cut-off for these calls is given here.

How the values were obtained:
[1] = Antioxidant activity assessed as DPPH radical scavenging activity incubated for 30 mins under dark condition by microplate reader based assay; assay type: functional
Homo sapiens = organism: Homo sapiens; assay: Selectivity ratio of IC50 for recombinant HDAC3 (unknown origin) to IC50 for recombinant HDAC6 (unknown origin)
[2] = biological target: T1, Protein deacetylase HDAC6 (Homo sapiens, UniProt Q9UBN7); assay: Inhibition of recombinant HDAC6 (unknown origin) using Boc-Lys(acetyl)-AMC as substrate preincubated for 1 hr followed by substrate addition and measured after 2 hrs by fluorescence based assay
T1 sequence (Q9UBN7 whole entry): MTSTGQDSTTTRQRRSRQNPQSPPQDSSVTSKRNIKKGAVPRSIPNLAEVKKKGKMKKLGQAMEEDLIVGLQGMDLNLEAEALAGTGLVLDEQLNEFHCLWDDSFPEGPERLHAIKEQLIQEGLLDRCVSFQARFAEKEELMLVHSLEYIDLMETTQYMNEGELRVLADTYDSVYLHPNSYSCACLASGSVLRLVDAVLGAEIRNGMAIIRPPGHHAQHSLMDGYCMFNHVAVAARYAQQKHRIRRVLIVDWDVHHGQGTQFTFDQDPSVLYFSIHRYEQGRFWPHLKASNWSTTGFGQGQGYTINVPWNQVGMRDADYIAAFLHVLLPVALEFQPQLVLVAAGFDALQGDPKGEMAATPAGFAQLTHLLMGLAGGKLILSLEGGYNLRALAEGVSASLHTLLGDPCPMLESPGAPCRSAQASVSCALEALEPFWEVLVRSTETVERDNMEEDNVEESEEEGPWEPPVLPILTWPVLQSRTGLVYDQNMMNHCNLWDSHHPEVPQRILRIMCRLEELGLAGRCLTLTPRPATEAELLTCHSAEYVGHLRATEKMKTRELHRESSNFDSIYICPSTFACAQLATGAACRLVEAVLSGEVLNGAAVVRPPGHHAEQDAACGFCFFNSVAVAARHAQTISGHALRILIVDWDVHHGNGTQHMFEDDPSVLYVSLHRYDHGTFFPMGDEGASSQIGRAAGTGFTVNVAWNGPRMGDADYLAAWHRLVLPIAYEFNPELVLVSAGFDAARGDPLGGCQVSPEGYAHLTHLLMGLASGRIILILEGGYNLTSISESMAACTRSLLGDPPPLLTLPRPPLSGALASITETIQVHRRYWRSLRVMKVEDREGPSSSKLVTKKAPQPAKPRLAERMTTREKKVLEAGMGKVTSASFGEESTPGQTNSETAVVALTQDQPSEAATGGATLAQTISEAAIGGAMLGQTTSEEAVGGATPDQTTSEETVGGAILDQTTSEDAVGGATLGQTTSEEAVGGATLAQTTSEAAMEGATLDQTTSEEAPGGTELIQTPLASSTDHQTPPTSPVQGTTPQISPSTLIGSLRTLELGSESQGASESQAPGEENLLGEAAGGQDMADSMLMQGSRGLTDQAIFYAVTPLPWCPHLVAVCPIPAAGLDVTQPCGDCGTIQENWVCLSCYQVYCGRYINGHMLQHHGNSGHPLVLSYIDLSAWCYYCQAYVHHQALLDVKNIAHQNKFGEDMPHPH

[3] = Antioxidant activity of compound assessed as trolox equivalent of AAPH radical scavenging activity at 2 to 4 uM preincubated for 15 mins followed by AAPH addition and measured every 2 mins for 90 mins by ORAC-fluorescein assay; assay type: functional; details: dose 2-4 µM, time 105.0 min
Histone deacetylase 3 [4] = biological target: T2, Histone deacetylase 3 (Homo sapiens, UniProt O15379); assay: Inhibition of recombinant HDAC3 (unknown origin) using Boc-Lys(acetyl)-AMC as substrate preincubated for 1 hr followed by substrate addition and measured after 2 hrs by fluorescence based assay
T2 sequence (O15379 whole entry): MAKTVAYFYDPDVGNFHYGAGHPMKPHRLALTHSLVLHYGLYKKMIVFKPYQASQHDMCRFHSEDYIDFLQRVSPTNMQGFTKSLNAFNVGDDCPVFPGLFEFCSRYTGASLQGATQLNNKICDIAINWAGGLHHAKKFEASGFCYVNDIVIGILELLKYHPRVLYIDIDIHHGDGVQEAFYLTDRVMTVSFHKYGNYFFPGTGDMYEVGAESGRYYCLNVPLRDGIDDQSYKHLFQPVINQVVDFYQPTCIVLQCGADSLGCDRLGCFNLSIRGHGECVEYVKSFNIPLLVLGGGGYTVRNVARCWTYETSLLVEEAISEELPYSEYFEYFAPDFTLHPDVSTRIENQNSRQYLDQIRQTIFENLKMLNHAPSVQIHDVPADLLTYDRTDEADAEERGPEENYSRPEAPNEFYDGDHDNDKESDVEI

HT-22 [5] = assay: Neuroprotection against glutamate-induced oxytosis in mouse HT-22 cells assessed as cell viability at 50 uM; assay type: functional, cell-based
HT-22 [6] = assay: Neuroprotection against iodoacetic acid-induced ATP depletion in mouse HT-22 cells assessed as cell viability at 50 uM; assay type: functional, cell-based
[7] = Neurotoxicity in mouse HT-22 cells assessed as cell survival at 10 uM incubated for 48 hrs by MTT assay; assay type: cell-based; details: for viability at 48 h, 10 µM: HT-22 cells, read-out: Activity
Mus musculus [8] = assay: Anti-alzheimer activity against amyloid beta (25 to 35) induced working memory deficit mouse assessed as step-through latency time to enter dark compartment at 1 mg/kg, ip administered for 7 days and measured on day 9 days by passive avoidance test; assay type: functional, organism-based; details: time 9.0 day
Mus musculus [9] = assay: (§1) Anti-alzheimer activity against amyloid beta (25 to 35) induced working memory deficit mouse assessed as increase in spontaneous alternation performance by measuring total number of arm entries at 0.16 mg/kg, ip administered for 7 days and measured on day 8 by Y-maze test; assay type: functional, organism-based; details: time 8.0 day
[10] = biological target: T3, Protein deacetylase HDAC6 (Homo sapiens) (UniProt Q9UBN7); assay: Inhibition of recombinant HDAC6 (unknown origin) at 1 uM using Boc-Lys(Ac)-AMC as substrate preincubated for 1 hr followed by substrate addition and measured after 2 hrs by fluorescence based assay; details: time 3.0 hrs
T3 sequence (whole entry): T1 sequence (Q9UBN7 whole entry)

Mus musculus [11] = assay: Anti-alzheimer activity against amyloid beta (25 to 35) induced working memory deficit mouse assessed as step-through latency time to enter dark compartment at 0.3 to 3 mg/kg, ip administered for 7 days and measured on day 9 days by passive avoidance test; assay type: functional, organism-based; details: dose 0.3-3 mg/kg, time 9.0 day
[12] = Metal chelating activity assessed as compound-Cu2+ complex formation at 10 to 200 uM incubated for 2 mins followed by pyrocatechol violet addition and further incubated for 10 mins by microplate reader based assay; details: dose 10-200 µM, time 12.0 min
Mus musculus [13] = assay: Cognitive enhancing effect in mouse model of Alzheimer's disease at 1 mg/kg; assay type: functional, organism-based
Mus musculus [14] = assay: Anti-alzheimer activity against amyloid beta (25 to 35) induced working memory deficit in mouse assessed as increase in spontaneous alternation performance at 1 mg/kg, ip administered for 7 days and measured on day 8 by Y-maze test; assay type: functional, organism-based; details: time 7.0 day
[15] = Metal chelating activity compound-Zn2+ complex formation at 10 to 200 uM preincubated for 2 mins followed by di-thizone addition by microplate reader based assay; details: dose 10-200 µM
Mus musculus [16] = assay: as §1, with “0.3” for “0.16”, “8 in presence of melatonin and ferulic acid” for “8”; assay type: functional, organism-based; details: time 8.0 day
[17] = Toxicity in mouse model of Alzheimer's disease assessed as drug tolerability at 0.3 to 3 mg/kg, ip measured after 7 days; assay type: organism-based; details: in vivo, 168 h, dose 0.3-3 mg/kg, time 7 day
Mus musculus [18] = assay: Anti-alzheimer activity against amyloid beta (25 to 35) induced working memory deficit mouse assessed as step-through latency time to enter dark compartment at 1 mg/kg, ip administered for 7 days and measured on day 9 days in presence of melatonin and ferulic acid by passive avoidance test; assay type: functional, organism-based; details: time 7.0 day
[19] = Metal chelating activity assessed as Fe2+ -ferrozoine complex formation at 10 to 200 uM preincubated for 2 mins followed by ferrozine addition and further incubated for 10 mins by microplate reader based assay; details: dose 10-200 µM, time 12.0 min
Mus musculus [20] = assay: Neuroprotection against mouse model of Alzheimer's disease at 1 mg/kg; assay type: functional, organism-based
Histone deacetylase 3 [21] = biological target: T2, Histone deacetylase 3; assay: Inhibition of recombinant HDAC3 (unknown origin) at 1 uM using Boc-Lys(Ac)-AMC as substrate preincubated for 1 hr followed by substrate addition and measured after 2 hrs by fluorescence based assay relative to control; details: time 3.0 hrs

| Compound | EC50 [1] [µM] | Ratio IC50 (Homo sapiens) | IC50 [2] [µM] | ORAC antioxidant capacity (Trolox equivalents) [3] | IC50 (Histone deacetylase 3 [4]) [µM] | further results |
| --- | --- | --- | --- | --- | --- | --- |
| COc1ccc2c(c1)c(CCNC(C)=O)cn2CCCCCC(=O)NO | 262 | 9 | 0.0523 | 1.6 | 0.494 | – |
| COc1ccc2[nH]cc(CCN(CCCCCC(=O)NO)C(=O)/C=C/c3ccc(O)c(OC)c3)c2c1 | 8.9 | 2 | 0.353 | 2.8 | 0.811 | – |
| COc1ccc2[nH]cc(CCN(Cc3ccc(/C=C/C(=O)NO)cc3)C(=O)/C=C/c3ccc(O)c(OC)c3)c2c1 | 8.5 | 6 | 0.0256 | 1 | 0.163 | Activity (HT-22 [5]): Active; Activity (HT-22 [6]): Active |
| COc1ccc2[nH]cc(CCNCc3ccc(/C=C/C(=O)NO)cc3)c2c1 | 17.1 | < 1 | 0.0214 | 2.4 | 0.0051 | viability at 48 h, 10 µM [7]: 50% |
| COc1ccc2[nH]cc(CCNC(C)=O)c2c1 [MELATONIN] | > 6000 | – | – | 2 | – | Activity (Mus musculus [8]): inactive; Activity (Mus musculus [9]): inactive |
| COc1ccc2[nH]cc(CCNC(=O)c3ccc(/C=C/C(=O)NO)cc3)c2c1 | 25.2 | < 1 | 0.0191 | 2 | 0.0036 | viability at 48 h, 10 µM [7]: 60% |
| COc1ccc2[nH]cc(CCNC(=O)CN(Cc3ccc(C(=O)NO)cc3)C(=O)/C=C/c3ccc(O)c(OC)c3)c2c1 | 15.2 | – | – | 1.6 | – | inhibition [10]: 19% |
| O=C(CCCCCCNC(=O)c1cnc(N(c2ccccc2)c2ccccc2)nc1)NO [RICOLINOSTAT] | 255 | – | – | 0.5 | – | Activity (Mus musculus [11]): Active; Activity [12]: Active; Activity (Mus musculus [13]): Active; Activity (Mus musculus [14]): Active; Activity [15]: Active; Activity (Mus musculus [16]): inactive; Activity [17]: Non-Toxic; Activity ([7]; ht-22, 48 h, 10 µM): Toxic; Activity (Mus musculus [18]): inactive; Activity [19]: Active; Activity (Mus musculus [20]): Active |
| COc1ccc2[nH]cc(CCNC(=O)c3ccc(C(=O)NO)cc3)c2c1 | 62 | – | – | 2.4 | – | inhibition [10]: 88%; inhibition (Histone deacetylase 3 [21]): 87% |
| COc1ccc2[nH]cc(CCNC(=O)CN(CCCCCC(=O)NO)C(=O)/C=C/c3ccc(O)c(OC)c3)c2c1 | 19.1 | 2 | 0.057 | 3.2 | 0.121 | – |
| COc1ccc2[nH]cc(CCNC(=O)CN(Cc3ccc(/C=C/C(=O)NO)cc3)C(=O)/C=C/c3ccc(O)c(OC)c3)c2c1 | 8.3 | 2 | 0.0532 | 1.2 | 0.108 | – |
| COc1cc(/C=C/C(=O)O)ccc1O [FERULATE] | 13.7 | – | – | 3.1 | – | – |
| COc1ccc2[nH]cc(CCNCc3ccc(C(=O)NO)cc3)c2c1 | 66.7 | – | – | 3 | – | inhibition [10]: 43%; inhibition (Histone deacetylase 3 [21]): 26% |
| COc1ccc2[nH]cc(CCNC(=O)/C=C/c3ccc(C(=O)NO)cc3)c2c1 | 65 | < 1 | 0.0337 | 2 | 0.0197 | – |
| COc1ccc2[nH]cc(CCNC(=O)CCCCC(=O)NO)c2c1 | 292 | – | – | 3 | – | inhibition (Histone deacetylase 3 [21]): 25% |
| COc1ccc2c(c1)c(CCNC(C)=O)cn2Cc1ccc(/C=C/C(=O)NO)cc1 | 31.4 | 3 | 0.0688 | 1.4 | 0.182 | – |
